These results are taken from patent US5714576A, “Linear analogs of alpha-msh fragments” (Competitive Technologies, Inc., priority 1997, dated 1998).

Positions of bridges follow the written chain, without caps; N, C: chain ends. Non-standard residues stand in square brackets, D forms with d. Residues, ends and D or L forms follow the SMILES beside them. Nle = CCCC[C@H](N)C(=O)O

This test concerns Frog (Rana pipiens) Skin. It is filed as cell-based. Conditions: cyclic analogues; for Biological Potency Frog: alpha-MSH = 1.0. The method, then: The biological potencies of alpha-MSH, the linear and cyclic analogues were determined by their ability to stimulate melanosome dispersion in vitro in the frog and lizard bioassays. This in vitro assay provides clear cut dose response curves (between 2.5×10^-11 and 4×10^-10 M) and can detect minimal concentration of alpha-MSH of about 10^-11 M. The assay is based upon the centrifugal dispersion of melanosomes (melanin granules) within the dendritic processes of integumental dermal melanophores leading to darkening of the skin. All the test solutions were prepared via serial dilutions from a stock solution (10^-4 M). The frogs (Rana pipiens) used in these evaluations were obtained from Kons Scientific, Germantown, Wis., and the lizards (Anolis carolinensis) were from the Snake Farm, La Place, La.

For the compound `CCCC[C@H](NC(=O)[C@H](CO)NC(=O)[C@H](Cc1ccc(O)cc1)NC(=O)[C@H](CO)NC(C)=O)C(=O)N[C@H]1CC(=O)NCCCC[C@@H](C(=O)NCC(=O)N2CCC[C@H]2C(=O)N[C@H](C(N)=O)C(C)C)NC(=O)[C@H](Cc2c[nH]c3ccccc23)NC(=O)[C@H](CCCNC(=N)N)NC(=O)[C@@H](Cc2ccccc2)NC(=O)[C@H](Cc2c[nH]cn2)NC1=O` [Analogue 21] (Ac-SYS[Nle]DH[dF]RWKGPV-NH2; lactam 5-10), the “Residual Activity Frog (prolonged action)” value (from here on “Residual Activity Frog”) is “p(+)” and the “Biological Potency Frog” value is 8.0.
Regarding `CCCC[C@H](NC(=O)[C@H](CO)NC(=O)[C@H](Cc1ccc(O)cc1)NC(=O)[C@H](CO)NC(C)=O)C(=O)N[C@H]1CC(=O)NCCCC[C@@H](C(N)=O)NC(=O)[C@H](Cc2c[nH]c3ccccc23)NC(=O)[C@H](CCCNC(=N)N)NC(=O)[C@@H](Cc2ccccc2)NC(=O)[C@H](Cc2c[nH]cn2)NC1=O` [Analogue 22] (Ac-SYS[Nle]DH[dF]RWK-NH2; lactam 5-10), the “Residual Activity Frog” value is listed as “p(+)” and the “Biological Potency Frog” value was found to be 2.0.
Turning to `CCCC[C@H](NC(=O)[C@H](CO)NC(=O)[C@H](Cc1ccc(O)cc1)NC(C)=O)C(=O)N[C@H]1CC(=O)NCCCC[C@@H](C(N)=O)NC(=O)[C@H](Cc2c[nH]c3ccccc23)NC(=O)[C@H](CCCNC(=N)N)NC(=O)[C@@H](Cc2ccccc2)NC(=O)[C@H](Cc2c[nH]cn2)NC1=O` [Analogue 23] (Ac-YS[Nle]DH[dF]RWK-NH2; lactam 4-9), the “Residual Activity Frog” value is recorded as “p(+)” and the “Biological Potency Frog” value was 0.7.
`CCCC[C@H](NC(=O)[C@H](CO)NC(C)=O)C(=O)N[C@H]1CC(=O)NCCCC[C@@H](C(N)=O)NC(=O)[C@H](Cc2c[nH]c3ccccc23)NC(=O)[C@H](CCCNC(=N)N)NC(=O)[C@@H](Cc2ccccc2)NC(=O)[C@H](Cc2c[nH]cn2)NC1=O` [Analogue 24] (Ac-S[Nle]DH[dF]RWK-NH2; lactam 3-8): the “Residual Activity Frog” value is given as “p(+)” and the “Biological Potency Frog” value was 1.0.
Take `CCCC[C@H](NC(C)=O)C(=O)N[C@H]1CC(=O)NCCCC[C@@H](C(=O)NCC(N)=O)NC(=O)[C@H](Cc2c[nH]c3ccccc23)NC(=O)[C@H](CCCNC(=N)N)NC(=O)[C@@H](Cc2ccccc2)NC(=O)[C@H](Cc2c[nH]cn2)NC1=O` [Analogue 26] (Ac-[Nle]DH[dF]RWKG-NH2; lactam 2-7): the “Residual Activity Frog” value is listed as “p(+)” and the “Biological Potency Frog” value stood at 5.5.
With `CCCC[C@H](NC(C)=O)C(=O)N[C@H]1CC(=O)NCCCC[C@@H](C(=O)NCC(=O)N2CCC[C@H]2C(N)=O)NC(=O)[C@H](Cc2c[nH]c3ccccc23)NC(=O)[C@H](CCCNC(=N)N)NC(=O)[C@@H](Cc2ccccc2)NC(=O)[C@H](Cc2c[nH]cn2)NC1=O` [Analogue 27] (Ac-[Nle]DH[dF]RWKGP-NH2; lactam 2-7), the “Residual Activity Frog” value is on record as “p(+)” and the “Biological Potency Frog” value is reported as 4.0.
For the compound `CCCC[C@H](NC(C)=O)C(=O)N[C@H]1CC(=O)NCCCC[C@@H](C(=O)NCC(=O)N2CCC[C@H]2C(=O)N[C@H](C(N)=O)C(C)C)NC(=O)[C@H](Cc2c[nH]c3ccccc23)NC(=O)[C@H](CCCNC(=N)N)NC(=O)[C@@H](Cc2ccccc2)NC(=O)[C@H](Cc2c[nH]cn2)NC1=O` [Analogue 28] (Ac-[Nle]DH[dF]RWKGPV-NH2; lactam 2-7), the “Residual Activity Frog” value was “p(+)” and the “Biological Potency Frog” value is given as 2.0.
On to `CCCC[C@H](NC(=O)[C@H](CO)NC(C)=O)C(=O)N[C@H]1CC(=O)NCCCC[C@@H](C(=O)NCC(=O)N2CCC[C@H]2C(=O)N[C@H](C(N)=O)C(C)C)NC(=O)[C@H](Cc2c[nH]c3ccccc23)NC(=O)[C@H](CCCNC(=N)N)NC(=O)[C@@H](Cc2ccccc2)NC(=O)[C@H](Cc2c[nH]cn2)NC1=O` [Analogue 29] (Ac-S[Nle]DH[dF]RWKGPV-NH2; lactam 3-8), for which the “Residual Activity Frog” value is given as “p(+)” and the “Biological Potency Frog” value was 9.0.
